Assay results: US20210267201A1, “HERBICIDAL MIXTURES COMPRISING ISOXAFLUTOLE, DIMETHENAMID OR DIMETHENAMID-P AND AN IMIDAZOLINONE HERBICIDE; AND THEIR USE IN SOYBEAN AND COTTON CULTURES” (BASF SE, priority 2018, published 2021)

Test system: AVEFA (Avena fatua, wild oat)
Test: greenhouse experiment: herbicidal action, scale from 0 to 100, synergism by Colby's equation
Assay type: in vivo
Conditions: scale 0 to 100, test period 20 days
Experimental: However, the weed control afforded by the compounds, mixtures or compositions is not limited to these species. The analysis of synergism or antagonism between the mixtures or compositions is determined using Colby's equation.
Synergism can be described as an interaction where the combined effect of two or more compounds is greater than the sum of the individual effects of each of the compounds. The presence of a synergistic effect in terms of percent control, between two mixing partners (X and Y) can be calculated using the Colby equation (Colby, S. R., 1967, Calculating Synergistic and Antagonistic Responses in Herbicide Combinations, Weeds, 15, 21-22):
When the observed combined control effect is greater than the expected (calculated) combined control effect (E), then the combined effect is synergistic.
The culture containers used were plastic flowerpots containing loamy sand with approximately 3.0% of humus as the substrate. The seeds of the test plants were sown separately for each species. For pre-emergence treatment, the active ingredients, which had been suspended or emulsified in water, were applied directly after sowing by means of finely distributing nozzles. […] During this time, the plants were tended, and their response to the individual treatments was evaluated. […]

SMILES: CS(=O)(=O)c1cc(C(F)(F)F)ccc1C(=O)c1cnoc1C1CC1 [Isoxaflutole, isoxaflutole]
- Herbicidal action against AVEFA, Found (Isoxaflutole 12.5 g/ha alone): 0
- Herbicidal action against AVEFA, Found (Isoxaflutole 25 g/ha alone): 0
